Measured values from ChEMBL document CHEMBL1955803, “Preclinical in vivo evaluation of efficacy, pharmacokinetics, and pharmacodynamics of a novel MEK1/2 kinase inhibitor RO5068760 in multiple tumor models” (Mol Cancer Ther, 2010).
Calls of active or inactive are those of the source. The rule behind the calls is not given here.

Tests used:
[1] = target: T1, Dual specificity mitogen-activated protein kinase kinase 1 (Homo sapiens, UniProt Q02750); assay: Inhibition of MEK1 in human MIA PaCa-2 cells assessed as inhibition of ERK phosphorylation by Western blot analysis; type: cell-based
Mus musculus [2] = assay: Toxicity in human HT-29 cells expressing B-Raf V600E mutant xenografted nude mouse assessed as gross signs of adverse effect at 25 to 100 mg/kg, po bid for 3 weeks; type: organism-based; design: dose 25-100 mg/kg, route oral; settings: in vivo, 504 h
[3] = target: T1, Dual specificity mitogen-activated protein kinase kinase 1; assay: Inhibition of MEK1
Mus musculus [4] = assay: Inhibition of MEK-mediated ERK phosphorylation in tumor of human HT-29 cells expressing B-Raf V600E mutant xenografted nude mouse at 100 mg/kg, po after 4 hrs by Western blot analysis relative to control; type: functional; settings: HT-29, 4 h
Mus musculus [5] = assay: Average drug concentration in human H460 cells expressing K-Ras Q61H mutant xenografted nude mouse plasma at 25 mg/kg, po bid; type: ADME, organism-based; design: dose 25 mg/kg, route oral; settings: in vivo
[6] = AUC (0 to 12 hrs) in human MIAPaCa2 cells expressing K-Ras G12C mutant xenografted nude mouse at 50 mg/kg, po bid; type: ADME, organism-based, MIA PaCa-2; design: time < 12 hr, dose 50 mg/kg, route oral; settings: in vivo
[7] = Drug level in human LOX cells expressing B-Raf V600E mutant xenografted nude mouse tumor at 100 mg/kg, po after 12 hrs; type: ADME, organism-based, Neoplasm; design: dose 100 mg/kg, route oral; settings: read-out: Drug uptake
[8] = target: T2, Dual specificity mitogen-activated protein kinase kinase; MEK1/2 (Homo sapiens) (UniProt P36507+Q02750); settings: LOX, 2 to 10 uM
Description: Inhibition of MEK1/2 in human LOX cells assessed as upregulation of p27 expression at 2 to 10 uM by Western blot analysis

[9] = Cmax in human LOX cells expressing B-Raf V600E mutant xenografted nude mouse at 12.5 mg/kg, po bid; type: ADME, organism-based; design: dose 12.5 mg/kg, route oral; settings: in vivo
HT-29 = assay: Antitumor activity against human HT-29 cells expressing B-Raf V600E mutant xenografted in nude mouse assessed as tumor growth inhibition at 100 mg/kg, po bid; type: functional; settings: read-out: GI
MIA PaCa-2 = assay: Growth inhibition of human MIAPaCa2 cells expressing K-Ras […] mutant by MTT assay; type: functional, cell-based
[10] = Cell cycle arrest in human LOX cells assessed as accumulation at G1 phase; type: functional, cell-based
Mus musculus [11] = assay: Average drug concentration in human MIAPaCa2 cells expressing K-Ras G12C mutant xenografted nude mouse plasma at 50 mg/kg, po bid; type: ADME, organism-based, MIA PaCa-2; design: dose 50 mg/kg, route oral; settings: in vivo
Mus musculus [12] = assay: Toxicity in human HT-29 cells expressing B-Raf V600E mutant xenografted nude mouse assessed as gross signs of adverse effect at 500 mg/kg, po administered weekly once for 3 weeks; type: organism-based; design: dose 500 mg/kg, route oral; settings: in vivo, 504 h
[13] = AUC (0 to 12 hrs) in human MIAPaCa2 cells expressing K-Ras G12C mutant xenografted nude mouse at 25 mg/kg, po bid; type: ADME, organism-based, MIA PaCa-2; design: time < 12 hr, dose 25 mg/kg, route oral; settings: in vivo
[14] = Cmax in human HT-29 cells expressing B-Raf V600E mutant xenografted nude mouse at 25 mg/kg, po bid; type: ADME, organism-based; design: dose 25 mg/kg, route oral; settings: in vivo
[15] = Cmax in human HT-29 cells expressing B-Raf V600E mutant xenografted nude mouse at 50 mg/kg, po bid; type: ADME, organism-based; design: dose 50 mg/kg, route oral; settings: in vivo
Mus musculus [16] = assay: Toxicity in human H460 cells expressing K-Ras Q61H mutant xenografted nude mouse assessed as gross signs of adverse effect at 500 mg/kg, po administered weekly once for 3 weeks; type: organism-based; design: dose 500 mg/kg, route oral; settings: in vivo, 504 h
Mus musculus [17] = assay: Toxicity in human H460 cells expressing K-Ras Q61H mutant xenografted nude mouse assessed as gross signs of adverse effect at 25 to 200 mg/kg, po bid for 3 weeks; type: organism-based; design: dose 25-200 mg/kg, route oral; settings: in vivo, 504 h
[18] = Drug level in human HT-29 cells expressing B-Raf V600E mutant xenografted nude mouse tumor at 100 mg/kg, po after 8 hrs; type: ADME, organism-based, Neoplasm; design: dose 100 mg/kg, route oral; settings: read-out: Drug uptake
Mus musculus [19] = assay: Toxicity in human LOX cells expressing B-Raf V600E mutant xenografted nude mouse assessed as gross signs of adverse effect at 6.25 to 200 mg/kg, po bid for 3 weeks; type: organism-based; design: dose 6.25-200 mg/kg, route oral; settings: in vivo, 504 h
Mus musculus [20] = assay: Inhibition of MEK-mediated ERK phosphorylation in po dosed human LOX cells expressing B-Raf V600E mutant xenografted nude mouse plasma by Western blot analysis; type: functional, organism-based
[21] = Cmax in human MIAPaCa2 cells expressing K-Ras G12C mutant xenografted nude mouse at 50 mg/kg, po bid; type: ADME, organism-based, MIA PaCa-2; design: dose 50 mg/kg, route oral; settings: in vivo
Mus musculus [22] = assay: Average drug concentration in human MIAPaCa2 cells expressing K-Ras G12C mutant xenografted nude mouse plasma at 100 mg/kg, po bid; type: ADME, organism-based, MIA PaCa-2; design: dose 100 mg/kg, route oral; settings: in vivo
Mus musculus [23] = assay: Toxicity in human MIAPaCa2 cells expressing K-Ras G12C mutant xenografted nude mouse assessed as gross signs of adverse effect at 25 to 200 mg/kg, po bid for 3 weeks; type: organism-based, MIA PaCa-2; design: dose 25-200 mg/kg, route oral; settings: in vivo, 504 h
Mus musculus [24] = assay: Average drug concentration in human LOX cells expressing B-Raf V600E mutant xenografted nude mouse plasma at 12.5 mg/kg, po bid; type: ADME, organism-based; design: dose 12.5 mg/kg, route oral; settings: in vivo
Mus musculus [25] = assay: Average drug concentration in human HT-29 cells expressing B-Raf V600E mutant xenografted nude mouse plasma at 100 mg/kg, po bid; type: ADME, organism-based; design: dose 100 mg/kg, route oral; settings: in vivo
[26] = target: T2, Dual specificity mitogen-activated protein kinase kinase; MEK1/2 (Homo sapiens); settings: LOX, 2 to 10 uM; remark: listed apart in the source
Description: Inhibition of MEK1/2 in human LOX cells assessed as inhibition of ERK1/2 phosphorylation at 2 to 10 uM by Western blot analysis

[27] = Cmax in human LOX cells expressing B-Raf V600E mutant xenografted nude mouse at 6.25 mg/kg, po bid; type: ADME, organism-based; design: dose 6.25 mg/kg, route oral; settings: in vivo
Mus musculus [28] = assay: Inhibition of MEK-mediated ERK phosphorylation in tumor of human HT-29 cells expressing B-Raf V600E mutant xenografted nude mouse at 100 mg/kg, po after 12 hrs by Western blot analysis relative to control; type: functional; settings: HT-29, 12 h
[29] = Antitumor activity against human LOX cells expressing B-Raf V600E mutant xenografted in nude mouse assessed as tumor growth inhibition at 12.5 mg/kg, po bid; type: functional; settings: read-out: GI
[30] = Drug level in human HT-29 cells expressing B-Raf V600E mutant xenografted nude mouse tumor at 100 mg/kg, po after 12 hrs; type: ADME, organism-based, Neoplasm; design: dose 100 mg/kg, route oral; settings: read-out: Drug uptake
[31] = Cmax in human H460 cells expressing K-Ras Q61H mutant xenografted nude mouse at 50 mg/kg, po bid; type: ADME, organism-based; design: dose 50 mg/kg, route oral; settings: in vivo
[32] = AUC (0 to 12 hrs) in human LOX cells expressing B-Raf V600E mutant xenografted nude mouse at 25 mg/kg, po bid; type: ADME, organism-based; design: time < 12 hr, dose 25 mg/kg, route oral; settings: in vivo
[33] = Drug level in human HT-29 cells expressing B-Raf V600E mutant xenografted nude mouse tumor at 100 mg/kg, po after 2 hrs; type: ADME, organism-based, Neoplasm; design: dose 100 mg/kg, route oral; settings: read-out: Drug uptake
[34] = Cmax in human LOX cells expressing B-Raf V600E mutant xenografted nude mouse at 25 mg/kg, po bid; type: ADME, organism-based; design: dose 25 mg/kg, route oral; settings: in vivo
[35] = AUC (0 to 12 hrs) in human LOX cells expressing B-Raf V600E mutant xenografted nude mouse at 6.25 mg/kg, po bid; type: ADME, organism-based; design: time < 12 hr, dose 6.25 mg/kg, route oral; settings: in vivo
Cynomolgus monkey = assay: Inhibition of MEK in po dosed cynomolgus monkey peripheral blood mononuclear cells assessed as inhibition of PMA-stimulated ERK phosphorylation after 1 to 24 hrs by flow cytometry; type: functional, organism-based; settings: Macaca fascicularis
[36] = Growth inhibition of human LOX cells expressing B-Raf V600E mutant by MTT assay; type: functional, cell-based

T2 sequence (P36507 whole entry, looked up): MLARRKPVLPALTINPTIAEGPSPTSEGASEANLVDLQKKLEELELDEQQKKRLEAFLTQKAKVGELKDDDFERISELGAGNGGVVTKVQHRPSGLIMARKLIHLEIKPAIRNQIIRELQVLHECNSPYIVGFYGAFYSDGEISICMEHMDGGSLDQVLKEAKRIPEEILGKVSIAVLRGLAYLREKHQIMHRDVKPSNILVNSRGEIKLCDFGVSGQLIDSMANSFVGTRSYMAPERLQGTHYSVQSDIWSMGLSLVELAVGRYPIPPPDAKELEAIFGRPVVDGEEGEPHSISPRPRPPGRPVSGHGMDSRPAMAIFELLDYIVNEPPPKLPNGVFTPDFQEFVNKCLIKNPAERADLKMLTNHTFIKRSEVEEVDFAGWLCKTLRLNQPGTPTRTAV
T2 sequence (Q02750 whole entry, looked up): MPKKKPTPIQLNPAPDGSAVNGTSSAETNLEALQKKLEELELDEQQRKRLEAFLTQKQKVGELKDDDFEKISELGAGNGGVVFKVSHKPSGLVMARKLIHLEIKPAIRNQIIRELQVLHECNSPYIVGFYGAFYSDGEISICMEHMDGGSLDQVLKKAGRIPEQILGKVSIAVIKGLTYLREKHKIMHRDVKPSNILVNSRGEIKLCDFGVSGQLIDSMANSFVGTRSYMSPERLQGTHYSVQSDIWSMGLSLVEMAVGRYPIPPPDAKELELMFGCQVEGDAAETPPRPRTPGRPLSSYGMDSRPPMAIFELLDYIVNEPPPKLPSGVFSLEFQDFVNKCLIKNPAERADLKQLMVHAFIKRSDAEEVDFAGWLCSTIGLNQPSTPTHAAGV
T1 sequence (Q02750 whole entry): as the sequence (Q02750 whole entry, looked up) above

In the case of `C[C@@H](c1ccccc1)[C@@H](C(=O)Nc1ccc(I)cc1F)N1C(=O)N[C@H](c2ccc(OC[C@H](O)CO)cc2)C1=O`, the IC50 [1] is reported as 69 nM, the Activity (Mus musculus [2]) is reported as “Non-toxic” and the IC50 [3] is reported as 25 nM. It also gave an inhibition in vivo at 100 mg/kg (Mus musculus [4]) of 79%, a Cave (Mus musculus [5]) of 733 ng/mL and an AUC at 12 h [6] of 18800 ng·h/mL. The concentration at 12 h [7] was 318 ng/g, the inhibition [8] was “Active” and the Cmax [9] was 1170 ng/mL. The inhibition in vivo at 100 mg/kg (HT-29) was 95%, the IC50 (MIA PaCa-2) was 1250 nM and the IC90 (MIA PaCa-2) was 5110 nM. For the same compound, the Activity [10] was “Active”, the Cave (Mus musculus [11]) was 1567 ng/mL and the Activity (Mus musculus [12]) was “Non-toxic”. For the same compound, the AUC at 12 h [13] was 12700 ng·h/mL, the Cmax [14] was 911 ng/mL and the Cmax [15] was 1300 ng/mL. For the same compound, the Activity (Mus musculus [16]) was “Non-toxic”, the Activity (Mus musculus [17]) was “Non-toxic” and the concentration at 8 h [18] was 293 ng/g. The Activity (Mus musculus [19]) was “Non-toxic”, the EC50 (Mus musculus [20]) was 1360 nM and the Cmax [21] was 5240 ng/mL. For the same compound, the Cave (Mus musculus [22]) was 2725 ng/mL, the Activity (Mus musculus [23]) was “Non-toxic” and the Cave (Mus musculus [24]) was 388 ng/mL. The Cave (Mus musculus [25]) was 1530 ng/mL, the inhibition [26] was “Active” and the Cmax [27] was 750 ng/mL. It also gave an inhibition in vivo at 100 mg/kg (Mus musculus [28]) of 0%, an inhibition in vivo at 12.5 mg/kg [29] of 99% and a concentration at 12 h [30] of 321 ng/g. The Cmax [31] was 8080 ng/mL, the AUC at 12 h [32] was 10000 ng·h/mL and the concentration at 2 h [33] was 2090 ng/g. The Cmax [34] was 3790 ng/mL, the AUC at 12 h [35] was 3970 ng·h/mL and the EC50 (Cynomolgus monkey) was 1410 nM. The IC50 [36] was 18 nM and the IC90 [36] was 720 nM.
